Source: publication PMC5329948, “Caspase vinyl sulfone small molecule inhibitors prevent axonal degeneration in human neurons and reverse cognitive impairment in Caspase-6-overexpressing mice” (Molecular Neurodegeneration, 2017)

Target: T1, Casp6 in Casp6-transfected HCT116 cells (Homo sapiens, UniProt P55212)
T1 construct: The mammalian constructs encoding human Casp6p20p10 in the pCep4β vector; expressed in transfected cells; host or cells: HCT116 human colon carcinoma cells
T1 sequence (P55212 24-179): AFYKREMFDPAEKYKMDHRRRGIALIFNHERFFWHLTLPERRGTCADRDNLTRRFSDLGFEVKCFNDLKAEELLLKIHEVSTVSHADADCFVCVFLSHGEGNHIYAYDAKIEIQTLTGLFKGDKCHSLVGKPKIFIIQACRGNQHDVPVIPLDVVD
T1 sequence (P55212 194-293): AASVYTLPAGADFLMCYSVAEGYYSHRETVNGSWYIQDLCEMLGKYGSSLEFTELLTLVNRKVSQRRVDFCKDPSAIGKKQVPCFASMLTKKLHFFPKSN
Assay: Casp6 VEIDase activity in extracts of Casp6p20p10-transfected HCT116 cells treated with inhibitor
Format: cell-based
Conditions: for Casp6 activity rise within 15 min of inhibitor removal / activity at 100 µM: 100 μM for 2 h, mean ± SEM; for Casp6 activity rise within 15 min of inhibitor removal: then fresh media 15 min; for decrease of Casp6 VEIDase activity within 15 min of treatment / decrease of Casp6 activity: 100 μM, Casp6-transfected HCT116; for decrease of Casp6 activity: 2 h; for activity at 100 µM: HCT-116, then fresh media 2 h, % of initial activity, read-out: Casp6 activity recovered 2 h after inhibitor removal; for IC50: cells treated for 2 h, read-out: IC50 on Casp6 activity in pCep4β-Casp6p20p10-transfected HCT116 cells
Description: HCT116: Human colon carcinoma (HCT116) cells (ATCC, Manassas, VA, USA) were cultured in McCoy’s 5A modified media (Thermo Fisher Scientific, Waltham, MA, USA) supplemented with 10% fetal bovine serum (Thermo Fisher Scientific, Waltham, MA, USA) and transfected with 1 μg of pCep4βCasp6p20p10 mixed with 8 μg of polyethyleneimine (Polysciences Inc., Warrington, PA, USA). Protein expression was allowed for 24 h before treating with vehicle (PBS), 100 μM NWL-117, or 100 μM NWL-154 for 2 h. For NWL inhibitor kinetic experiments, 100 μM of NWL-117 or NWL-154 was added at 120, 90, 60, 30, 15, or 0 min before harvest. […] For recovery time course experiments, after the initial treatment with 100 μM of NWL-117 or −154 for 2 h, the media was replaced with fresh media for 120, 90, 60, 30, 15, or 0 min before harvest. Primary Human CNS neurons: Cortical tissues were obtained from the Birth Defects Research Laboratory (BDRL, University of Washington, Seattle, USA) in accordance with NIH ethical guidelines approved by McGill University’s institutional review board and primary neurons cultured as previously described. Primary human neurons were seeded on poly-L-lysine-coated (5 μg/mL) 6-well plates or glass coverslips coated with poly-L-lysine and laminin (5 μg/mL) (Sigma-Aldrich, Oakville, ON, CA) at a density of 3x10^6 cells/mL. Primary human neurons were pre-treated with 0.1 μM epoxomicin (Enzo LifeSciences, Farmingdale, NY, USA) and 100 μM NWL-117, 100 μM NWL-154, or vehicle (PBS) for 2 h, and serum-deprived for 2 h in the presence of epoxomicin and vehicle (PBS), 100 μM NWL-117, or 100 μM NWL-154 before harvesting or measuring caspase activity with FLICA, as described below.
Recombinant or extracted cellular Casp6 activity: Casp6 activity was assessed by in vitro fluorogenic assays using Ac-Val-Glu-Ile-Asp-(7-Amino-4-trifluoromethylcouramin) (Ac-VEID-AFC: Enzo LifeSciences, NY, USA) as the Casp6 substrate. The activity was measured in Stennicke’s buffer (SB) (20 mM piperazine-N, N-bis (2-ethanesulfonic acid) (PIPES: BioShop Canada Inc, Burlington, Ontario, CA) pH 7.2, 30 mM NaCl, 1 mM ethylenediaminetetraacetic acid (EDTA), 0.1% 3-[(3-cholamidopropyl)-dimethylammonio]-2-hydroxy-1-propanesulfonic acid (CHAPS), 10% sucrose). The reaction mix consisted of either 20 nM RCasp6 or 20–30 μg cellular protein extracts, SB, 10 mM DTT, 10 μM VEID-AFC substrate and deionized water. The activity was measured in a black clear bottom 96-well plate (Costar, Corning, NY, USA) at 50 μL/well in triplicate at 37 °C in the Synergy H4 plate reader (BioTek) at excitation 380 nm and emission 505 nm every two minutes for 100 min. Fluorescence units were converted to the moles of AFC released based on a standard curve of 0–625 picomoles of free AFC. Cleavage rates were calculated from the linear phase of the assay. The activity is considered on a percentage scale where no inhibitor present is equated to 100% activity of the enzyme. Cellular Casp6 activity assay by FLICA: Active Casp6 was labeled within primary human neurons using the fluorescent inhibitor of Casp6 (FLICA) (FAM-VEID-fmk, ImmunoChemistry, Bloomington, MN, USA) following the manufacturer’s protocol. Briefly, FLICA reagent and Hoechst 33342 were added to a black clear bottom 96-well plate containing 100,000 of the treated-primary human neurons for 2 h at 37 °C in 5% CO2. The cells were rinsed twice with wash buffer and fresh media was added to the cells. The fluorescence of FAM-VEID-fmk was measured at 490 nm excitation and 520 nm emission with bandwidth reduced to 8 nm in the Synergy H4 plate reader (BioTek). The Hoechst signal was measured by excitation at 360 nm and emission at 485 nm.
The half-maximal inhibitory concentrations (IC50) for NWL inhibitors (Patent publication # WO/2009/140765, WO/2010/133000, and WO/2012/140500) was determined by incubating 0 to 20 μM NWL-117 and NWL-154 with 20 nM of active site-titrated Casp6 in SB at room temperature for 5 minutes. […]

| Structure (SMILES) | Casp6 activity rise within 15 min of inhibitor removal | decrease of Casp6 VEIDase activity within 15 min of treatment | decrease of Casp6 activity | activity at 100 µM | IC50 |
| --- | --- | --- | --- | --- | --- |
| CCC(C)[C@H](NC(=O)[C@H](CCC(=O)O)NC(=O)[C@@H](NC(=O)OCc1ccccc1)C(C)C)C(=O)N[C@H](/C=C/S(C)(=O)=O)CC(=O)O (stereo partly shown) [NWL-117] | 43% | 88% | 80% | 85% | 4.82 µM |
| CCC(C)[C@H](NC(=O)[C@H](CCC(=O)O)NC(=O)[C@@H](NC(=O)OCc1ccccc1)C(C)C)C(=O)N[C@H](/C=C(\Cl)S(C)(=O)=O)CC(=O)O (stereo partly shown) [NWL-154] | 21% | 95% | 96% | 30% | 3.63 µM |
